# Measured values taken from publication PMC9780857 (International Journal of Molecular Sciences, 2022).
# “And” between values parts separate entries of the source, which are not always exact repeats. Identical values can stand only once. “Also recorded” adds a separate entry of the source. Like-named read-outs stand apart in the source and are kept apart here.
# What was measured:
# [1] = test system: OCT2; set-up: method as in PMID 19833842; conditions: OCT2-overexpressing HEK293 cells; read-out: IC50, YM155 uptake; cited from earlier work
# [2] = biological target: T1, hOCT2 (Homo sapiens, UniProt O15244); assay: Inhibition of hOCT2-mediated 14C-metformin uptake in transfected HEK293 cells; type: cell-based; set-up: expressed in transfected cells; host or cells: HEK293 (stably transfected)
# T1 sequence (O15244 1-555): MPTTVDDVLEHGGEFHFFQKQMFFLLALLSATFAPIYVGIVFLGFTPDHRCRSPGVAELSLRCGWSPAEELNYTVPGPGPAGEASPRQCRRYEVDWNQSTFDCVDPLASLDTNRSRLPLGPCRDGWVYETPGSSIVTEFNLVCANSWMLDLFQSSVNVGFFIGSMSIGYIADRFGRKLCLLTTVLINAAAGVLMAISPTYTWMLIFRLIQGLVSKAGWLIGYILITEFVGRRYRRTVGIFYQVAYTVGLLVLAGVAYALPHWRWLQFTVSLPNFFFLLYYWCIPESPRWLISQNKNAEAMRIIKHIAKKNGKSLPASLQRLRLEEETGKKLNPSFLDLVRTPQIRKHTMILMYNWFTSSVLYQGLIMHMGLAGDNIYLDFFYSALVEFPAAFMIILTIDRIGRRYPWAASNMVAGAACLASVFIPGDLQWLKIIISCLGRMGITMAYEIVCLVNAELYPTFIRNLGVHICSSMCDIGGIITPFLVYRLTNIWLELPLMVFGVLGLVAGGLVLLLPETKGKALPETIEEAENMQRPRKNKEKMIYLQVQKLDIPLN
# Procedure: (§1) The uptake assays were performed as previously described in 24-well plates. […] After incubation, the uptake was stopped by aspirating the reaction mixture and washing the cells three times with 0.4 mL ice-cold PBS buffer. Cells were then solubilized with 0.6 mL of 1 N NaOH, overnight. The whole content of each well (0.6 mL) was transferred to a scintillation vial (Perkin Elmer). The radio-labelled amount was determined by liquid scintillation counting.
# (§2) All inhibition experiments were conducted on at least two separate days in triplicate.
# (§3) For screening experiments, cis-inhibition was carried out in duplicate by measuring the uptake of the labeled probe substrate in the absence and presence of 10 µM or 100 µM of the respective pesticide or drug. […] Inhibitory effects in percent were calculated from net-uptake. […]
# [3] = biological target: T2, mOct2 (Mus musculus, UniProt O70577); assay: Inhibition of mOct2-mediated 14C-metformin uptake in transfected HEK293 cells; type: cell-based; set-up: expressed in transfected cells; host or cells: HEK293 (stably transfected)
# T2 sequence (O70577 1-553): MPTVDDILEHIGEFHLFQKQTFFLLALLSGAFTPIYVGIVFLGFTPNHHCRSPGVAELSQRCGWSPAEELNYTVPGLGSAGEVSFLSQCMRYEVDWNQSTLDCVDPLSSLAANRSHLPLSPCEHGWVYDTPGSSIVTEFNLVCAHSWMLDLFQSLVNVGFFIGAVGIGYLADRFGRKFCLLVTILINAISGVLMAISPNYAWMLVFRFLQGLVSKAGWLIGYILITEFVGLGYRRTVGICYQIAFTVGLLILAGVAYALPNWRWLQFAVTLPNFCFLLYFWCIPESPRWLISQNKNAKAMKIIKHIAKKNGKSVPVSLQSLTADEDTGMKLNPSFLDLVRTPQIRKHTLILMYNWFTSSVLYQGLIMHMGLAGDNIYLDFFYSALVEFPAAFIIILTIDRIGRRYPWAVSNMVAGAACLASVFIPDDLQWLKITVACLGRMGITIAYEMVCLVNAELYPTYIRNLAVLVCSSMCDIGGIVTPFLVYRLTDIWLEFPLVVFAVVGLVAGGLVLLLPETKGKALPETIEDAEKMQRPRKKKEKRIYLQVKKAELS
# Procedure: as §1, §2, §3
# [4] = biological target: T1, hOCT2; conditions: MPP higher affinity than metformin
# Procedure: as §1
# (§4) All experiments were conducted on two separate days in triplicate.
# (§5) The cellular protein amounts were analyzed in parallel to the transport experiments by the Bradford method as previously described.
# (§6) The Km and Vmax values were obtained using SigmaPlot version 13 by fitting the Michaelis–Menten equation V = Vmax*[S]/(Km + [S]), where V refers to the rate of substrate transport, Vmax refers to the maximum rate of substrate transport, [S] refers to the concentration of substrate, and Km is defined as the concentration of substrate at the half-maximal transport rate.
# [5] = biological target: T2, mOct2; conditions: MPP higher affinity than metformin
# Procedure: as §1, §4, §5, §6
# [6] = biological target: T1, hOCT2; set-up: expressed in transfected cells; host or cells: HEK293 (stably transfected); conditions: cited from earlier work
# [7] = biological target: T1, hOCT2; conditions: read-out: IC50, hOCT2-mediated metformin uptake; cited from earlier work
# [8] = biological target: T1, hOCT2; set-up: expressed in transfected cells; host or cells: HEK293 (stably transfected); conditions: cited from earlier work; remark: listed apart in the source
# [9] = test system: MATEs; set-up: method as in ref 33 (Wittwer et al.); conditions: ref 33 (Wittwer et al.); read-out: IC50, MATEs-mediated ASP+ uptake; cited from earlier work
# [10] = Highest soluble concentration in assay buffer (determined visually); type: physicochemical; conditions: assay buffer (HBSS/HEPES), aqueous buffer, HBSS/HEPES pH 7.4
# [11] = biological target: T1, hOCT2; assay: Inhibition of hOCT2-mediated 3H-MPP uptake in transfected HEK293 cells; type: cell-based; set-up: expressed in transfected cells; host or cells: HEK293 (stably transfected)
# Procedure: (§7) With cDNA of hOCT2 (GeneBank: accession number: NM_003058.3) or mOct2 (NM_013667.2), stably overexpressing HEK293 cells were used for the experiments and empty vector-transfected HEK cells were used as control-HEK cells.
# (§8) The uptake assays were performed as previously described in 24-well plates. Therefore, culture medium was aspirated, and each well was rinsed three times with 0.5 mL incubation buffer (HBSS supplemented with 20 mM HEPES, pH 7.4) and then incubated in 200 µL dosing solution containing ^3H-MPP or ^14C-metformin and the test compound. After incubation, the uptake was stopped by aspirating the reaction mixture and washing the cells three times with 0.4 mL ice-cold PBS buffer. Cells were then solubilized with 0.6 mL of 1 N NaOH, overnight. The whole content of each well (0.6 mL) was transferred to a scintillation vial (Perkin Elmer). The radio-labelled amount was determined by liquid scintillation counting.
# (§9) […]. All inhibition experiments were conducted on at least two separate days in triplicate.
# as §6
# [12] = biological target: T2, mOct2; assay: Inhibition of mOct2-mediated 3H-MPP uptake in transfected HEK293 cells; type: cell-based; set-up: expressed in transfected cells; host or cells: HEK293 (stably transfected)
# Procedure: as §7, §8, §9, §6
# [13] = biological target: T1, hOCT2; set-up: method as in PMID 9260930; conditions: OCT2-overexpressing oocytes (procainamid); read-out: IC50, hOCT2-mediated TEA uptake; cited from earlier work
# [14] = biological target: T1, hOCT2; set-up: expressed in transfected cells; host or cells: HEK293 (stably transfected); method as in ref 39 (Vermeer et al.); conditions: ref 39 (Vermeer et al.); cited from earlier work
# [15] = HEK293; read-out: Inhibitory Effects (%) hOCT2 10 µM Mean
# [16] = HEK293; read-out: Inhibitory Effects (%) hOCT2 100 µM Mean
# [17] = HEK293, 10 µM test compound; 1 µM [14C]metformin, 2 min, HEK293; negative = stimulation; read-out: Inhibitory Effects (%) mOct2 10 µM Mean
# [18] = HEK293, 100 µM test compound; 1 µM [14C]metformin, 2 min, HEK293; negative = stimulation; read-out: Inhibitory Effects (%) mOct2 100 µM Mean
# [19] = 10 µM test compound; 1 µM [14C]metformin, 2 min, HEK293; negative = stimulation
# [20] = HEK293, 10 µM test compound; 1 µM [14C]metformin, 2 min, HEK293; negative = stimulation; read-out: Inhibitory Effects (%) hOCT2 10 µM Mean
# [21] = HEK293, 100 µM test compound; 1 µM [14C]metformin, 2 min, HEK293; negative = stimulation; read-out: Inhibitory Effects (%) hOCT2 100 µM Mean
# [22] = HEK293; read-out: Inhibitory Effects (%) mOct2 10 µM Mean
# [23] = HEK293; read-out: Inhibitory Effects (%) mOct2 100 µM Mean
# [24] = up to 100 µM (highest soluble concentration)
# [25] = 100 µM test compound; 1 µM [14C]metformin, 2 min, HEK293; negative = stimulation
smiles,measurement,setting,value
CCN(CC)CCNC(=O)c1ccc(N)cc1 [Procainamid],IC50,[1],92000 nM
same,inhibition at 10 µM,[2]; [15],-20%
same,inhibition at 100 µM,[2]; [16],-44%
same,inhibition at 10 µM,[3]; [17],-16%
same,inhibition at 100 µM,[3]; [18],-30%
"C[n+]1ccc(-c2ccccc2)cc1.[I-] [MPP, 1-Methyl-4-phenylpyridinium iodide]",Fold difference in affinity (Km) of hOCT2 between MPP and metformin,[4],64 fold
same,Fold difference in affinity (Km) of mOct2 between MPP and metformin,[5],89 fold
C[n+]1ccc(-c2cc[n+](C)cc2)cc1 [Paraquat],inhibition at 10 µM,"[2]; HEK293, read-out: Inhibitory Effects (%) hOCT2 10 µM Mean",-15%
same,inhibition at 100 µM,"[2]; HEK293, read-out: Inhibitory Effects (%) hOCT2 100 µM Mean",-52%
same,inhibition at 10 µM,"[3]; HEK293, read-out: Inhibitory Effects (%) mOct2 10 µM Mean",-9%
same,inhibition at 100 µM,"[3]; HEK293, read-out: Inhibitory Effects (%) mOct2 100 µM Mean",-48%
same,Km,"[6]; read-out: Km, concentration dependent uptake by human OCT2",114 µM
Clc1cccc(Cl)c1N=C1NCCN1 [Clonidine],IC50,[7],680 nM
same,Inhibitory Effects (%) hOCT2 10 µM Mean,[2]; [19],40%
same,inhibition at 10 µM,[2]; [20],60%
same,inhibition at 100 µM,[2]; [21],76%
same,Inhibitory Effects (%) mOct2 10 µM Mean,[3]; [19],54%
same,inhibition at 10 µM,[3]; [17],46%
same,inhibition at 100 µM,[3]; [18],89%
same,IC50,"[8]; read-out: IC50, hOCT2-mediated MPP uptake",6000 nM
CNC(=C[N+](=O)[O-])NCCSCc1ccc(CN(C)C)o1 [Ranitidine],inhibition at 10 µM,[2]; [20],-43%
same,inhibition at 100 µM,[2]; [21],-33%
same,inhibition at 10 µM,[3]; [22],-37%
same,inhibition at 100 µM,[3]; [23],-16%
same,Km,"[6]; ref 36 (Tahara et al.), read-out: Km, substrate of hOCT2",65.2 µM
CC(C)c1nc(CN(C)C(=O)N[C@H](C(=O)N[C@@H](Cc2ccccc2)C[C@H](O)[C@H](Cc2ccccc2)NC(=O)OCc2cncs2)C(C)C)cs1 [Ritonavir],IC50,[9],4400 nM
same,inhibition at 10 µM,[2]; [20],-10%
same,inhibition at 100 µM,[2]; [21],-38%
same,inhibition at 10 µM,[3]; [22],1%
same,inhibition at 100 µM,[3]; [23],-8%
COc1cc2c(cc1OC)CN(CCc1ccc(NC(=O)c3cccc4c(=O)c5cccc(OC)c5[nH]c34)cc1)CC2 [Elacridar],solubility,[10],100 µM
same,IC50,[2],20000 nM
same,inhibition at 10 µM,[2]; [15],25%
same,inhibition at 100 µM,[2]; [16],65%
same,IC50,[3],1900 nM
same,inhibition at 10 µM,[3]; [22],56%
same,inhibition at 100 µM,[3]; [23],81%
same,Fold higher inhibitory potency to mouse than to human OCT2 (IC50 ratio),[3]; metformin as substrate,10 fold
same,"IC50, hOCT2-mediated MPP uptake",[11]; 2 nM [3H]MPP,no IC50 value could be determined; also recorded: calculation of an IC50 value was not possible
same,Maximum inhibition of hOCT2-mediated MPP uptake,[11]; [24],≤ 60%
same,"IC50, mOct2-mediated MPP uptake",[12]; 2 nM [3H]MPP,no IC50 value could be determined; also recorded: calculation of an IC50 value was not possible
same,Maximum inhibition of mOct2-mediated MPP uptake,[12]; [24],≤ 60%
CCN1/C(=C/c2ccc3ccccc3[n+]2CC)C=Cc2ccccc21.[I-] [Decynium22],IC50,[13],100 nM
same,"Fold higher inhibitory potential on metformin uptake compared to MPP uptake, hOCT2",[2],7.2 fold
same,Inhibitory Effects (%) hOCT2 10 µM Mean,[2]; [19],67%
same,Inhibitory Effects (%) hOCT2 100 µM Mean,[2]; [25],96%
same,IC50,"[2]; read-out: IC50, hOCT2-mediated metformin uptake; control inhibitor; 350 µM metformin; 0.1-100 µM inhibitor",2200 nM
same,"Fold higher inhibitory potential on metformin uptake compared to MPP uptake, mOct2",[3],2.7 fold
same,Inhibitory Effects (%) mOct2 10 µM Mean,[3]; [19],72%
same,Inhibitory Effects (%) mOct2 100 µM Mean,[3]; [25],97%
same,IC50,"[3]; read-out: IC50, mOct2-mediated metformin uptake; control inhibitor; 350 µM metformin; 0.1-100 µM inhibitor",2600 nM
same,Fold higher IC50 for hOCT2 than for mOct2,[11]; MPP as substrate,2 fold and 2.3 fold
same,IC50,"[11]; read-out: IC50, hOCT2-mediated MPP uptake, control inhibitor, MPP at its Km, 0.1-100 µM inhibitor",16000 nM
same,IC50,"[12]; read-out: IC50, mOct2-mediated MPP uptake, control inhibitor, MPP at its Km, 0.1-100 µM inhibitor",6900 nM
same,IC50,"[8]; read-out: IC50, MPP uptake in hOCT2-HEK293 cells, HEK293, ref 28 (Hayer-Zillgen et al. 2002)",1300 nM
CC(=O)N1CCN(c2ccc(OCC3COC(Cn4ccnc4)(c4ccc(Cl)cc4Cl)O3)cc2)CC1 (stereo not drawn) [Ketoconazole],inhibition at 10 µM,[2]; [20],31%
same,inhibition at 100 µM,[2]; [21],87%
same,inhibition at 10 µM,[3]; [22],49%
same,inhibition at 100 µM,[3]; [23],87%
same,IC50,[14],890 nM
